From the NIST ThermoML archive (doi:10.1021/je900216m)
Numbers after ± are expanded uncertainties.

Assay: osmotic coefficient (dimensionless); mn = molality of the nth substance listed, in mol/kg
Settings: Liquid, isopiestic method

## CCCC[N+](CC)(CC)CC.[Br-] [butyltriethyl ammonium bromide] + O
283.15 K, m1 = 0.1033
  osmotic coefficient: 0.9271 ± 0.0029
283.15 K, m1 = 0.1376
  osmotic coefficient: 0.9231 ± 0.0031
283.15 K, m1 = 0.2187
  osmotic coefficient: 0.9188 ± 0.0033
283.15 K, m1 = 0.2974
  osmotic coefficient: 0.9175 ± 0.0034
283.15 K, m1 = 0.3319
  osmotic coefficient: 0.9169 ± 0.0035
283.15 K, m1 = 0.4688
  osmotic coefficient: 0.92 ± 0.0034
283.15 K, m1 = 0.555
  osmotic coefficient: 0.9241 ± 0.0034
283.15 K, m1 = 0.679
  osmotic coefficient: 0.9288 ± 0.0033
283.15 K, m1 = 0.78
  osmotic coefficient: 0.934 ± 0.0032
283.15 K, m1 = 0.8485
  osmotic coefficient: 0.9393 ± 0.0031
283.15 K, m1 = 0.9497
  osmotic coefficient: 0.9464 ± 0.0029
288.15 K, m1 = 0.1039
  osmotic coefficient: 0.9158 ± 0.0033
288.15 K, m1 = 0.1569
  osmotic coefficient: 0.904 ± 0.0038
288.15 K, m1 = 0.2793
  osmotic coefficient: 0.8916 ± 0.0043
288.15 K, m1 = 0.3789
  osmotic coefficient: 0.8853 ± 0.0046
288.15 K, m1 = 0.4818
  osmotic coefficient: 0.884 ± 0.0047
288.15 K, m1 = 0.6069
  osmotic coefficient: 0.8837 ± 0.0048
288.15 K, m1 = 0.6983
  osmotic coefficient: 0.8853 ± 0.0048
288.15 K, m1 = 0.8052
  osmotic coefficient: 0.8899 ± 0.0046
288.15 K, m1 = 0.8847
  osmotic coefficient: 0.8929 ± 0.0046
288.15 K, m1 = 1.028
  osmotic coefficient: 0.8989 ± 0.0044

## CCCC[N+](CC)(CC)CCCC.[Br-] [dibutyldiethylammonium bromdie] + O
283.15 K, m1 = 0.1034
  osmotic coefficient: 0.9261 ± 0.0029
283.15 K, m1 = 0.1376
  osmotic coefficient: 0.9232 ± 0.003
283.15 K, m1 = 0.2189
  osmotic coefficient: 0.9178 ± 0.0033
283.15 K, m1 = 0.2978
  osmotic coefficient: 0.9163 ± 0.0033
283.15 K, m1 = 0.3324
  osmotic coefficient: 0.9156 ± 0.0034
283.15 K, m1 = 0.4702
  osmotic coefficient: 0.9172 ± 0.0033
283.15 K, m1 = 0.5576
  osmotic coefficient: 0.9198 ± 0.0033
283.15 K, m1 = 0.6825
  osmotic coefficient: 0.924 ± 0.0032
283.15 K, m1 = 0.7842
  osmotic coefficient: 0.9289 ± 0.003
283.15 K, m1 = 0.8544
  osmotic coefficient: 0.9328 ± 0.0029
283.15 K, m1 = 0.9569
  osmotic coefficient: 0.9393 ± 0.0026
288.15 K, m1 = 0.1041
  osmotic coefficient: 0.9139 ± 0.0034
288.15 K, m1 = 0.1562
  osmotic coefficient: 0.908 ± 0.0036
288.15 K, m1 = 0.2772
  osmotic coefficient: 0.8982 ± 0.004
288.15 K, m1 = 0.3749
  osmotic coefficient: 0.8947 ± 0.0041
288.15 K, m1 = 0.4763
  osmotic coefficient: 0.8941 ± 0.0042
288.15 K, m1 = 0.6002
  osmotic coefficient: 0.8934 ± 0.0043
288.15 K, m1 = 0.6897
  osmotic coefficient: 0.8963 ± 0.0042
288.15 K, m1 = 0.7971
  osmotic coefficient: 0.8989 ± 0.0041
288.15 K, m1 = 0.8741
  osmotic coefficient: 0.9038 ± 0.0039
288.15 K, m1 = 1.012
  osmotic coefficient: 0.9132 ± 0.0036

## CC(C)C[N+](CC(C)C)(CC(C)C)CC(C)C.[Br-] [tetra-iso-butyl ammonium bromide] + O
283.15 K, m1 = 0.1035
  osmotic coefficient: 0.9253 ± 0.0029
283.15 K, m1 = 0.1376
  osmotic coefficient: 0.9231 ± 0.0031
283.15 K, m1 = 0.2192
  osmotic coefficient: 0.9167 ± 0.0034
283.15 K, m1 = 0.2986
  osmotic coefficient: 0.9138 ± 0.0035
283.15 K, m1 = 0.3332
  osmotic coefficient: 0.9133 ± 0.0036
283.15 K, m1 = 0.4724
  osmotic coefficient: 0.9129 ± 0.0037
283.15 K, m1 = 0.5608
  osmotic coefficient: 0.9146 ± 0.0037
283.15 K, m1 = 0.6871
  osmotic coefficient: 0.9179 ± 0.0037
283.15 K, m1 = 0.7904
  osmotic coefficient: 0.9217 ± 0.0036
283.15 K, m1 = 0.8617
  osmotic coefficient: 0.9249 ± 0.0035
283.15 K, m1 = 0.9658
  osmotic coefficient: 0.9307 ± 0.0034
288.15 K, m1 = 0.1041
  osmotic coefficient: 0.9142 ± 0.0034
288.15 K, m1 = 0.1569
  osmotic coefficient: 0.9038 ± 0.0038
288.15 K, m1 = 0.2795
  osmotic coefficient: 0.8908 ± 0.0043
288.15 K, m1 = 0.3804
  osmotic coefficient: 0.8818 ± 0.0047
288.15 K, m1 = 0.4856
  osmotic coefficient: 0.877 ± 0.005
288.15 K, m1 = 0.6127
  osmotic coefficient: 0.8752 ± 0.0051
288.15 K, m1 = 0.7082
  osmotic coefficient: 0.8728 ± 0.0052
288.15 K, m1 = 0.8192
  osmotic coefficient: 0.8747 ± 0.0052
288.15 K, m1 = 0.9012
  osmotic coefficient: 0.8766 ± 0.0052
288.15 K, m1 = 1.05
  osmotic coefficient: 0.8804 ± 0.0051

## CCC(C)[N+](C(C)CC)(C(C)CC)C(C)CC.[Br-] (stereo not given) [tetra-sec-butyl ammonium bromide] + O
283.15 K, m1 = 0.1033
  osmotic coefficient: 0.927 ± 0.0029
283.15 K, m1 = 0.1377
  osmotic coefficient: 0.9222 ± 0.0031
283.15 K, m1 = 0.2195
  osmotic coefficient: 0.9154 ± 0.0035
283.15 K, m1 = 0.2991
  osmotic coefficient: 0.9123 ± 0.0036
283.15 K, m1 = 0.3339
  osmotic coefficient: 0.9114 ± 0.0037
283.15 K, m1 = 0.4732
  osmotic coefficient: 0.9114 ± 0.0039
283.15 K, m1 = 0.5619
  osmotic coefficient: 0.9128 ± 0.0039
283.15 K, m1 = 0.6887
  osmotic coefficient: 0.9157 ± 0.0039
283.15 K, m1 = 0.7927
  osmotic coefficient: 0.919 ± 0.0039
283.15 K, m1 = 0.8651
  osmotic coefficient: 0.9213 ± 0.0038
283.15 K, m1 = 0.9705
  osmotic coefficient: 0.9261 ± 0.0037
288.15 K, m1 = 0.1042
  osmotic coefficient: 0.913 ± 0.0034
288.15 K, m1 = 0.1572
  osmotic coefficient: 0.9021 ± 0.0039
288.15 K, m1 = 0.2811
  osmotic coefficient: 0.8859 ± 0.0046
288.15 K, m1 = 0.3824
  osmotic coefficient: 0.8772 ± 0.0049
288.15 K, m1 = 0.4912
  osmotic coefficient: 0.867 ± 0.0054
288.15 K, m1 = 0.6212
  osmotic coefficient: 0.8632 ± 0.0056
288.15 K, m1 = 0.7168
  osmotic coefficient: 0.8624 ± 0.0057
288.15 K, m1 = 0.8295
  osmotic coefficient: 0.8638 ± 0.0057
288.15 K, m1 = 0.9119
  osmotic coefficient: 0.8663 ± 0.0056
288.15 K, m1 = 1.06
  osmotic coefficient: 0.8713 ± 0.0055

## CCCC[N+](CCCC)(CCCC)CCCC.[Br-] [tetrabutylammonium bromide] + O
283.15 K, m1 = 0.1035
  osmotic coefficient: 0.9257 ± 0.003
283.15 K, m1 = 0.138
  osmotic coefficient: 0.9204 ± 0.0032
283.15 K, m1 = 0.2197
  osmotic coefficient: 0.9146 ± 0.0034
283.15 K, m1 = 0.2995
  osmotic coefficient: 0.9111 ± 0.0037
283.15 K, m1 = 0.3343
  osmotic coefficient: 0.9104 ± 0.0037
283.15 K, m1 = 0.4739
  osmotic coefficient: 0.9101 ± 0.004
283.15 K, m1 = 0.5629
  osmotic coefficient: 0.9111 ± 0.0042
283.15 K, m1 = 0.6903
  osmotic coefficient: 0.9136 ± 0.0042
283.15 K, m1 = 0.7953
  osmotic coefficient: 0.916 ± 0.0042
283.15 K, m1 = 0.8682
  osmotic coefficient: 0.918 ± 0.0042
283.15 K, m1 = 0.9751
  osmotic coefficient: 0.9217 ± 0.0041
288.15 K, m1 = 0.1045
  osmotic coefficient: 0.9107 ± 0.0035
288.15 K, m1 = 0.1582
  osmotic coefficient: 0.8964 ± 0.0041
288.15 K, m1 = 0.2837
  osmotic coefficient: 0.8776 ± 0.0049
288.15 K, m1 = 0.3864
  osmotic coefficient: 0.8681 ± 0.0053
288.15 K, m1 = 0.4954
  osmotic coefficient: 0.8596 ± 0.0058
288.15 K, m1 = 0.628
  osmotic coefficient: 0.8539 ± 0.0062
288.15 K, m1 = 0.7262
  osmotic coefficient: 0.8512 ± 0.0063
288.15 K, m1 = 0.8429
  osmotic coefficient: 0.8501 ± 0.0064
288.15 K, m1 = 0.9276
  osmotic coefficient: 0.8517 ± 0.0064
288.15 K, m1 = 1.079
  osmotic coefficient: 0.8566 ± 0.0062
